One assay addresses Autotaxin (Homo sapiens, UniProt Q13822). Nature of the assay: Negative allosteric modulation activity against human ATX using FS-3 as substrate preincubated for 45 mins followed by substrate addition and measured every 30 mins by multi-mode microplate reader.
The subject of another assay is MCF7. Nature of the assay: Cytotoxicity against human MCF-7 cells assessed as inhibition of cell growth incubated for 72 hrs by MTT assay. Type of assay: functional, cell-based. The conditions noted are these: MCF7, 72 h.
The next assay deals with MDA-MB-231. Nature of the assay: Cytotoxicity against human MDA-MB-231 cells assessed as inhibition of cell growth incubated for 72 hrs by MTT assay. Type of assay: functional, cell-based. The settings on record: MDA-MB-231, 72 h.
Another assay deals with A549. Nature of the assay: Cytotoxicity against human A549 cells assessed as inhibition of cell growth incubated for 72 hrs by MTT assay. Format: functional, cell-based. The conditions noted are these: A549, 72 h.
The test system of another assay is Hep 3B2. Nature of the assay: Cytotoxicity against human Hep3B cells assessed as inhibition of cell growth incubated for 72 hrs by MTT assay. Format: functional, cell-based.
The subject of a further assay is RAW264.7. Kind of assay: Cytotoxicity against mouse RAW264.7 cells assessed as inhibition of cell growth incubated for 72 hrs by MTT assay. The conditions noted are these: RAW264.7, 72 h. Type of assay: functional, cell-based.
The next assay has as its system NCI-H1581. Kind of assay: Cytotoxicity against human NCI-H1581 cells assessed as inhibition of cell growth incubated for 72 hrs by MTT assay. Type of assay: functional, cell-based. The settings on record: NCI-H1581, 72 h.
The subject of the next assay is NCI-H2228. Nature of the assay: Cytotoxicity against human H2228 cells assessed as inhibition of cell growth incubated for 72 hrs by MTT assay. The conditions noted are these: NCI-H2228, 72 h. Format: functional, cell-based.

pIC50: −log10 of the molar value.

Take `CCc1nc2c(C)cc(-c3ccc(CN4CCN(C)CC4)cc3)cn2c1NC(=O)OCc1ccc(C(F)(F)F)cc1`: the pIC50 at Autotaxin was 6.50; in the assay on MCF7 it was less than 4.70; in the assay with MDA-MB-231, 5.37; in the assay with A549, less than 4.70; in the assay with Hep 3B2, less than 4.70; in the assay with RAW264.7, less than 4.70.

On Autotaxin, `CCc1nc2c(C)cc(-c3ccc(CN4CCN(CC)CC4)cc3)cn2c1NC(=O)OCc1ccc(F)c(F)c1` gave a pIC50 of 6.77.

In the case of `CCc1nc2c(C)cc(-c3ccc(CN4CCN(CCO)CC4)cc3)cn2c1NC(=O)OCc1ccc(C(F)(F)F)cc1`, the pIC50 on Autotaxin is 7.09; in the assay on MCF7, 5.15; in the assay with A549 it was 5.30; in the assay with NCI-H1581 it was 5.25; in the assay with Hep 3B2, 5.22; in the assay on RAW264.7, 5.70.

Regarding `CCc1nc2c(C)cc(-c3ccc(CN4CCN(CCO)CC4)cc3)cn2c1NC(=O)OCc1ccc(F)cc1`, the pIC50 against Autotaxin is 8.15; with MCF7, less than 4.70; in the assay on MDA-MB-231, less than 4.70; in the assay on A549 it was less than 4.70; in the assay with NCI-H1581, less than 4.70; in the assay on NCI-H2228, less than 4.70. For the same molecule, the pIC50 with Hep 3B2 and in the assay on RAW264.7 was less than 4.70 in each case.

For `CCc1nc2c(C)cc(-c3ccc(CNCCO)cc3)cn2c1NC(=O)OCc1cc(Cl)cc(Cl)c1`, the pIC50 was 7.47 on Autotaxin; less than 4.70 with MCF7; less than 4.70 in the assay with MDA-MB-231; less than 4.70 with A549; less than 4.70 with Hep 3B2.

As to `CCc1nc2c(C)cc(-c3ccc(CN4CCSCC4)cc3)cn2c1NC(=O)OCc1ccc(F)c(F)c1`, the pIC50 against Autotaxin is 6.54; in the assay on MDA-MB-231, less than 4.70; in the assay on A549, less than 4.70; with Hep 3B2, less than 4.70.

Regarding `CCc1nc2c(C)cc(-c3ccc(CN4CCC(C)CC4)cc3)cn2c1NC(=O)OCc1cc(Cl)cc(Cl)c1`, the pIC50 is 7.62 against Autotaxin; 5.40 with MCF7; 5.23 in the assay with MDA-MB-231; 5.09 with A549; 5.39 in the assay with NCI-H1581; 5.29 in the assay on NCI-H2228. For the same molecule, the pIC50 with Hep 3B2 was 5.31; with RAW264.7, 5.67.

For `CCc1nc2c(C)cc(-c3ccc(CO)cc3)cn2c1NC(=O)OCc1ccc(F)c(F)c1`, the pIC50 on Autotaxin is less than 6.00.

For `CCc1nc2c(C)cc(-c3ccc(CN4CCSCC4)cc3)cn2c1NC(=O)OCc1cc(Cl)cc(Cl)c1`, the pIC50 against Autotaxin was 7.04; in the assay on MCF7, less than 4.70; in the assay with A549, less than 4.70; in the assay on Hep 3B2 it was less than 4.70.

Turning to `CCc1nc2c(C)cc(-c3ccc(CN4CCCCC4)cc3)cn2c1NC(=O)OCc1cc(Cl)cc(Cl)c1`, on Autotaxin, the pIC50 was 6.79.

With `CCc1nc2c(C)cc(-c3ccc(CN4CCOCC4)cc3)cn2c1NC(=O)OCc1ccc(F)cc1`, the pIC50 against Autotaxin is 7.29; in the assay on MCF7, less than 4.70; in the assay with MDA-MB-231 it was less than 4.70; in the assay with A549, less than 4.70; with NCI-H1581 it was less than 4.70; in the assay with NCI-H2228 it was less than 4.70. Moreover, the pIC50 with Hep 3B2 and in the assay with RAW264.7 was less than 4.70 each time.

As to `CCc1nc2c(C)cc(-c3ccc(CN4CCC[C@H]4CO)cc3)cn2c1NC(=O)OCc1cc(Cl)cc(Cl)c1`, the pIC50 was 7.39 on Autotaxin, 5.24 with A549 and 5.60 with RAW264.7.

Molecule `CCc1nc2c(C)cc(-c3ccc(CN4CCOCC4)cc3)cn2c1NC(=O)OCc1cc(Cl)cc(Cl)c1` showed a pIC50 against Autotaxin of 6.89.

For the molecule `CCc1nc2c(C)cc(-c3ccc(CN4CCN(C)CC4)cc3)cn2c1NC(=O)OCc1ccc(F)c(F)c1`, the pIC50 was 6.81 against Autotaxin; 5.19 in the assay with MCF7; 5.21 with MDA-MB-231; less than 4.70 with A549; 5.31 in the assay with Hep 3B2; 5.44 in the assay on RAW264.7.

For `CCc1nc2c(C)cc(-c3ccc(CN4CCN(CCO)CC4)cc3)cn2c1NC(=O)OCc1ccc(F)c(F)c1`, the pIC50 against Autotaxin was 7.39; with MCF7, 5.02; with MDA-MB-231, 5.32; with A549, 5.25; in the assay with NCI-H2228 it was 5.02; in the assay with Hep 3B2, 4.98. Further, the pIC50 in the assay with RAW264.7 was 5.30.

In the case of `CCc1nc2c(C)cc(-c3ccc(CN4CCN(CC)CC4)cc3)cn2c1NC(=O)OCc1ccc(C(F)(F)F)cc1`, the pIC50 at Autotaxin is 6.63.

Turning to `CCc1nc2c(C)cc(-c3ccc(CN4CCC[C@H]4CO)cc3)cn2c1NC(=O)OCc1ccc(F)cc1`, the pIC50 was 7.58 against Autotaxin; less than 4.70 with MCF7; less than 4.70 in the assay with MDA-MB-231; less than 4.70 in the assay with A549; less than 4.70 in the assay with NCI-H1581; less than 4.70 with NCI-H2228. In addition, the pIC50 in the assay with Hep 3B2 and in the assay on RAW264.7 was less than 4.70 throughout.

Consider `CCc1nc2c(C)cc(-c3ccc(CN4CCOCC4)cc3)cn2c1NC(=O)OCc1ccc(OC)c(Cl)c1`, for which the pIC50 against Autotaxin was 7.47; with MCF7 it was less than 4.70; with MDA-MB-231, less than 4.70; in the assay with A549 it was less than 4.70; in the assay on NCI-H1581, less than 4.70; in the assay with NCI-H2228, less than 4.70. Moreover, the pIC50 with Hep 3B2 and with RAW264.7 was less than 4.70 each time.

On Autotaxin, `CCc1nc2c(C)cc(-c3ccc(CN4CCCC4)cc3)cn2c1NC(=O)OCc1cc(Cl)cc(Cl)c1` gave a pIC50 of 6.85.

Turning to `CCc1nc2c(C)cc(-c3ccc(CN4CCC(O)CC4)cc3)cn2c1NC(=O)OCc1cc(Cl)cc(Cl)c1`, the pIC50 is 7.77 on Autotaxin; 5.27 with MCF7; 5.80 in the assay on MDA-MB-231; 5.32 in the assay with NCI-H1581; 5.13 with NCI-H2228; 5.34 with RAW264.7.

Consider `O=C(CCN1CCN(C(=O)OCc2cc(Cl)cc(Cl)c2)CC1)c1ccc2[nH]c(=O)oc2c1`, for which the pIC50 with MCF7, with MDA-MB-231, with A549, in the assay with NCI-H1581, with NCI-H2228 and in the assay on Hep 3B2 was less than 4.70 each time. In the assay on RAW264.7, the pIC50 is 5.02.

As for `CCc1nc2c(C)cc(-c3ccc(CN(CCO)CCO)cc3)cn2c1NC(=O)OCc1cc(Cl)cc(Cl)c1`, the pIC50 against Autotaxin was 7.15.

For `CCc1nc2c(C)cc(-c3ccc(CN4CCN(C)CC4)cc3)cn2c1NC(=O)OCc1cc(Cl)cc(Cl)c1`, the pIC50 is 6.66 at Autotaxin; 5.24 in the assay on MCF7; 5.40 in the assay on A549; 5.31 in the assay with Hep 3B2; 5.85 with RAW264.7.

Turning to `CCc1nc2c(C)cc(N3CCN(CC(=O)N4CC(O)C4)CC3)cn2c1N(C)c1nc(-c2ccc(F)cc2)c(C#N)s1` [ZIRITAXESTAT], the pIC50 in the assay on MCF7, in the assay with MDA-MB-231, in the assay on A549, in the assay on NCI-H1581, in the assay with NCI-H2228 and in the assay on Hep 3B2 was less than 4.70 each time. Further, in the assay on RAW264.7, the pIC50 was less than 4.70.

Values taken from ChEMBL document CHEMBL5154876, “Design, synthesis and promising anti-tumor efficacy of novel imidazo[1,2-a]pyridine derivatives as potent autotaxin allosteric inhibitors” (Eur J Med Chem, 2022).
